Residue numbers refer to the chain shown, from its start. Values joined by “and” are separate entries in the source; they are usually repeats but may differ in a detail not shown here. Equal values may be shown once.
Key:
[1] = target: T1, cysteine-substituted TMC1 constructs (Mus musculus, UniProt Q8R4P5, N447C); assay: Background current before and after MTSET treatment in Tmc1-knockout OHCs expressing cysteine-substituted TMC1; format: cell-based; details: Tmc1-knockout OHCs expressing TMC1-N447C, individual cells
T1 construct: control full-length TMC1 (TMC1_WT); expressed in transfected cells; host or cells: Tmc1-knockout mouse OHCs, injectoporation
T1 sequence (Q8R4P5 1-757 N447C): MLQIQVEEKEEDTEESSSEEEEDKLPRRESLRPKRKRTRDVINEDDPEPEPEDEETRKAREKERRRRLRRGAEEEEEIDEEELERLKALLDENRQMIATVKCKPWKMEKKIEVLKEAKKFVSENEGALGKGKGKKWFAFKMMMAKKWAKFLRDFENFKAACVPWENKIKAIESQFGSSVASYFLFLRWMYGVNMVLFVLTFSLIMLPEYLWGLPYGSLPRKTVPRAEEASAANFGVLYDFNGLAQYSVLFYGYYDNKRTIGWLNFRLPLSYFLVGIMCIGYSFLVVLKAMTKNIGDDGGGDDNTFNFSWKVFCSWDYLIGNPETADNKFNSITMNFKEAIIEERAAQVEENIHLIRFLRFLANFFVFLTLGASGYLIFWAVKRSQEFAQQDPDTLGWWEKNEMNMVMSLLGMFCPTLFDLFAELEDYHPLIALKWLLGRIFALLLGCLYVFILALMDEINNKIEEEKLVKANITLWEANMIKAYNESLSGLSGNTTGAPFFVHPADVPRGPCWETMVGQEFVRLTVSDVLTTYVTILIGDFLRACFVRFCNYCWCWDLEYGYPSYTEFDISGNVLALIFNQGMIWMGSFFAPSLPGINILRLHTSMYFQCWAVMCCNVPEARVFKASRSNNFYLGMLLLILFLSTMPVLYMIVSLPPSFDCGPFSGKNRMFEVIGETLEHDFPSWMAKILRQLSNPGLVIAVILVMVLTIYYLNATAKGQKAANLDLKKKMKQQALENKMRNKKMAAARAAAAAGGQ
Protocol: (§1) Mouse Tmc1 and Tmc2 cDNAs were cloned into CMV-Script and pCDNA3.1- vectors, respectively. To obtain the Tmc1-deafness vector and amino-acid-substituted Tmc1 constructs, specific primers were designed and used for PCR (Supplementary File 1). […] In brief, the organ of Corti was isolated from P3 mice and cut into three pieces in Dulbecco’s modified Eagle’s medium/F12 with 1.5 μg/ml ampicillin. For electroporation, a glass pipette (2 μm tip diameter) was used to deliver cDNA plasmids (0.2 μg/μl in 1 × Hanks' balanced salt solution) to hair cells in the sensory epithelium. EGFP was used as an indicator for the selection of transfected hair cells. A series of three pulses at 60 V lasting 15 ms at 1 s intervals was applied to cochlear tissues by an electroporator (ECM Gemini X2, BTX, CA). The cochlear tissues were cultured for 1 day in vitro and then used for electrophysiological recording.
(§2) All experiments were performed at room temperature (20–25°C). Briefly, the basilar membrane with hair cells was acutely dissected from neonatal mice. […] The acutely isolated or cultured basilar membrane was used for electrophysiological recording within 1 h. […] Hair cells were recorded with a patch-clamp amplifier (EPC 10 USB and Patchmaster software, HEKA Elektronik, Lambrecht/Pfalz, Germany).
(§3) The sampling rate was 1 kHz for leak current recording, 50 kHz for the IV protocol and current-clamp recording, and 100 kHz for unitary channel recording. The voltage-clamp used a –70 mV holding potential, and the current-clamp was held at 0 pA. Only recordings with a current baseline <20 pA in NMDG solution were used for statistical analysis.

[2] = target: T2, cysteine-substituted TMC1 constructs (Mus musculus, UniProt Q8R4P5, T532C); assay: as above; format: cell-based; details: Tmc1-knockout OHCs expressing TMC1-T532C, individual cells
T2 construct: control full-length TMC1 (TMC1_WT); expressed in transfected cells; host or cells: Tmc1-knockout mouse OHCs, injectoporation
T2 sequence (Q8R4P5 1-757 T532C): T1 sequence (Q8R4P5 1-757 N447C) with C447N, T532C
Protocol: as §1, §2, §3

[3] = tested on: cysteine-substituted TMC1 constructs; assay: as above; format: cell-based, mouse; details: OHCs expressing any of the six cysteine-substituted TMC1 constructs
Protocol: as §1, §2, §3

TMC1-M412C [4] = target: T3, TMC1-M412C (Mus musculus, UniProt Q8R4P5, M412C); assay: MET current under MTSET treatment in Tmc1;Tmc2 double-knockout OHCs expressing TMC1-M412C; format: cell-based
T3 construct: control full-length TMC1 (TMC1_WT); expressed in transfected cells; host or cells: Tmc1;Tmc2 double-knockout mouse OHCs (P1 + 3 DIV), injectoporation
T3 sequence (Q8R4P5 whole entry M412C): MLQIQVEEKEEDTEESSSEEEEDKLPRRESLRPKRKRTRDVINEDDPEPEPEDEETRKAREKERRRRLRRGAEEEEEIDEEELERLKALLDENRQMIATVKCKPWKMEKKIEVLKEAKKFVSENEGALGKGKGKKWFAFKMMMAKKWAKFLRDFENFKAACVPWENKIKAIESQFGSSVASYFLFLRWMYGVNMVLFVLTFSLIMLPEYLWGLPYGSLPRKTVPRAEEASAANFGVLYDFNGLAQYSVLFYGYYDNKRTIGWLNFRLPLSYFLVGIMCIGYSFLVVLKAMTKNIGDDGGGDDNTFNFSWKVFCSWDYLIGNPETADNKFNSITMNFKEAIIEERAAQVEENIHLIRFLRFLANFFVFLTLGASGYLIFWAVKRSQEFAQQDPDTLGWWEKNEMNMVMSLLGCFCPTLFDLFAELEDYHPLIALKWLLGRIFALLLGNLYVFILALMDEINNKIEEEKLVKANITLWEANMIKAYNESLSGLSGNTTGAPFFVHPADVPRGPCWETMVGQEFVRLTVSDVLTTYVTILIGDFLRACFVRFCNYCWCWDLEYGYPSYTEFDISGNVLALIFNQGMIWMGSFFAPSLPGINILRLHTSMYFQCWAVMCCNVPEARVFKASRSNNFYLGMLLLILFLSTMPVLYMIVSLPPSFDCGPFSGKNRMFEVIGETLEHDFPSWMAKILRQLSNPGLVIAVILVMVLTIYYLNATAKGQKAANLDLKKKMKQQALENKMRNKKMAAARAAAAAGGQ
T3 sequence (Q4KL25 whole entry partner): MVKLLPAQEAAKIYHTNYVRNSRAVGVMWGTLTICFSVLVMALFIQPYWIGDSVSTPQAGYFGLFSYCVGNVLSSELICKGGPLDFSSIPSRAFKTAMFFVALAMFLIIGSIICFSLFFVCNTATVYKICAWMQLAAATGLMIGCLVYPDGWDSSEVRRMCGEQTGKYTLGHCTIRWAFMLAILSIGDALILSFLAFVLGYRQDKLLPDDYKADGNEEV
T3 sequence (Q8K467 29-153 partner): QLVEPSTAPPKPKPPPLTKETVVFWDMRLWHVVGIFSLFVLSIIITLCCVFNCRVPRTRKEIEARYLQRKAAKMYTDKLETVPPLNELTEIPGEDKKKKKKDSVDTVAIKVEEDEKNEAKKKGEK
T3 sequence (Q9Z309 whole entry partner): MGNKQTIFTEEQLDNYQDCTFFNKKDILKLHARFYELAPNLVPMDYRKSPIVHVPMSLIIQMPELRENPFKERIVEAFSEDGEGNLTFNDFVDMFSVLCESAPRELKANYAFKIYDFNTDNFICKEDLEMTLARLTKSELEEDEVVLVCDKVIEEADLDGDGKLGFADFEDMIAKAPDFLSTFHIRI

TMC1-M412C [5] = target: T3, TMC1-M412C; design: method as in Pan et al., 2018; details: MTSET treatment of M412C; ref Pan et al., 2018; cited from earlier work

C[N+](C)(C)CCSS(C)(=O)=O.[Br-] [MTSET, 2-(trimethylammonium)ethyl methanethiosulfonate, bromide]
amplitude of the background current after MTSET treatment [1]: -12.9811 and -13.0886 and -13.798 and -25.7685 and -27.4817 and -21.0828 | amplitude of the background current after MTSET treatment [2]: -61.9555 and -32.5794 and -12.1284 and -34.0535 and -31.604 | effect on the current baseline [3]: did not, however, change the current baseline | effect on the MET current amplitude (TMC1-M412C [4]): did change the MET current amplitude | effect on the MET current (TMC1-M412C [5]): reduced the MET current
